From US20230225990A1, “DIMETHYL SULFONE FOR TREATMENT OF CHRONICALLY HEAT STRESSED POULTRY” (Evonik Operations GmbH, priority 2020, published 2023)
Marks after values point to notes of the source that are not given here.

Tests used:
Assay type in all cases: in vivo, broiler chickens (Ross 308)
[1] = tested on: male broilers subjected to chronic cyclic heat stress; assay: Carcass yield and portions on d-40; conditions: d-40 after overnight fasting
Text: Sampling of two birds per pen (with weight close to average weight of the pen) on d-40 after overnight fasting (no heat stress that day) • Carcass yield, breast percentage, thigh percentage, drumstick percentage and abdominal fat • Carcass yield: with skin, bled, without internal organs, without feet, without head, without neck, without abdominal fat; relative to bird body weight • Breast percentage: skinless, boneless; relative to bird body weight • Thigh percentage: with skin, with bone; relative to bird body weight • Drumstick percentage: with skin, with bone; relative to bird body weight • Abdominal fat percentage: abdominal fat; relative to bird body weight • Breast meat quality • Scoring of breast myopathies (wooden breast and white striping) • Wooden breast: normal, 0; mild, 1 and severe, 2 • White striations: normal, 0; mild, 1, and severe, 2 • pH and colour, both at time 0 h and 24 h (after sampling at time 0 h, breasts are stored at 4° C. until 24 h) • Drip loss, determined for periods 0-24 h and for period 0-72 h (after sampling at time 0 h, breasts are stored at 4° C. until 72 h, and weight without exuded water at 24 h and 72 h) • Press loss, determined at 24 h (after sampling at time 0 h, breasts are stored at 4° C. until 24 h, prior to determine press loss) • Oxidative stability (TBARS after simulated retail display)

[2] = tested on: male broilers subjected to chronic cyclic heat stress; assay: Body weight and rectal temperature of birds sampled at d-23, d-25 and d-39
Method: (§1) Sampling of one bird per pen (with weight close to average weight of the pen) on d-23, d-25 and on d-39 (on d-25 and d-39, sampling starts after >3 h of heat stress that day; 108 birds in total) • malondialdehyde, HSP70 (Chicken Heat Shock Protein 70, Hsp-70 ELISA Kit) Cusabio Code CSB-E11196Ch), HSP90 (Chicken Heat Shock Protein 90, HSP-90 ELISA Kit; Cusabio Code CSB-E12873C), GPx, SOD in plasma; GSH/GSSG in erythrocytes; and T3, T4 and nitric oxide in serum • Breast muscle and liver: malondialdehyde, AOX (GPx, SOD), GSH/GSSG
(§2) For physiological measurements, time of sampling (representing the number of minutes between the beginning of heat stress and the precise moment of sampling of the bird that day), if appropriate, was included in the model as a covariable if significant as well. Orthogonal contrasts were applied to test for linear and quadratic effects upon incremental levels of DMS supplementation in the diet. Means are given as estimated marginal means (least square means). Means were separated using the Tukey post-hoc test. Differences were considered significant when p<0.05 and as a trend for significance when p<0.1.
At d-23, d-25 and d39, one bird per pen (with weight close to average weight of the pen) was sampled. On d-25 and d-39, sampling started after >3 h of heat stress that day. Thus, in total 108 birds were sampled, and various endpoints were determined in several tissues. To recall, finisher period started on d-21, while the heat stress protocol was implemented from d-24 onwards. It means that d-23 was the last day prior to heat stress and d-25 the second day whereby birds were subjected to high temperatures. Body weights on d-23 and d-25 (Table 7) were naturally higher than those reported on d-21 (Table 3), but not affected by treatment. Body weights at d-39 for sampled birds are very close to body weights for d-39 shown in Table 3, which confirms that birds with weight close to average weight of the pen were selected. Again, this was not affected by supplementation with DMS. Rectal temperature of sampled birds on d-23 represents values for thermo-neutral conditions, and thus ranged between 41.1 and 41.3° C. without treatment differences (FIG. 15). However, on d-25 rectal temperatures were largely elevated and obviously affected by diet (P<0.05). […] Nonetheless, observations are in line with findings on d-38 (Table 4).

[3] = tested on: male broilers subjected to chronic cyclic heat stress; assay: Parameters in liver of birds sampled at d-23, d-25 and d-39
Method: as §1, §2

[4] = 0.2% DMS in diet (T3), sampled birds d-25

For `CS(C)(=O)=O` [DMS, dimethyl sulfone], the Body weight ([1]; 0.1% DMS in diet (T2)) was 3010 g, the Body weight ([1]; 0.2% DMS in diet (T3)) was 2980 g and the Body weight ([2]; 0.1% DMS in diet (T2), sampled birds d-23) was 1361 g. The Rectal temperature ([2]; 0.1% DMS in diet (T2), sampled birds d-23 (prior to heat stress)) was 41.3 °C, the Body weight ([2]; 0.1% DMS in diet (T2), sampled birds d-25) was 1544 g and the Rectal temperature ([2]; 0.1% DMS in diet (T2), sampled birds d-25, during heat stress) was 42.5^b ° C. It also gave a Body weight ([2]; 0.1% DMS in diet (T2), sampled birds d-39) of 3097 g, a Rectal temperature ([2]; 0.1% DMS in diet (T2), sampled birds d-39, during heat stress) of 42.6 °C and a Body weight ([2]; 0.2% DMS in diet (T3), sampled birds d-23) of 1352 g. The Rectal temperature ([2]; 0.2% DMS in diet (T3), sampled birds d-23 (prior to heat stress)) was 41.1 °C, the Body weight [2, 4] was 1536 g and the “Rectal temperature lower than control” value [2, 4] was 0.5 °C. For the same compound, the Rectal temperature ([2]; 0.2% DMS in diet (T3), sampled birds d-25, during heat stress) was 42.3^b ° C, the Body weight ([2]; 0.2% DMS in diet (T3), sampled birds d-39) was 3068 g and the Rectal temperature ([2]; 0.2% DMS in diet (T3), sampled birds d-39, during heat stress) was 42.3 °C. The GSSG/GSH ([3]; 0.1% DMS in diet (T2), d-23) was 0.016, the “Glutathione (GSH)” value ([3]; 0.1% DMS in diet (T2), d-23) was 4.69 µmol/g and the Glutathione peroxidase ([3]; 0.1% DMS in diet (T2), d-23) was 17.0 U/g. For the same compound, the Malondialdehyde ([3]; 0.1% DMS in diet (T2), d-23) was 43.9 nmol/g, the “Oxidized glutathione (GSSG)” value ([3]; 0.1% DMS in diet (T2), d-23) was 0.077 µmol/g and the Super oxide dismutase ([3]; 0.1% DMS in diet (T2), d-23) was 332 U/g. The GSSG/GSH ([3]; 0.1% DMS in diet (T2), d-25) was 0.017, the “Glutathione (GSH)” value ([3]; 0.1% DMS in diet (T2), d-25) was 4.26 µmol/g and the Glutathione peroxidase ([3]; 0.1% DMS in diet (T2), d-25) was 17.8 U/g. For the same compound, the Malondialdehyde ([3]; 0.1% DMS in diet (T2), d-25) was 48.6 nmol/g, the “Oxidized glutathione (GSSG)” value ([3]; 0.1% DMS in diet (T2), d-25) was 0.070 µmol/g and the Super oxide dismutase ([3]; 0.1% DMS in diet (T2), d-25) was 292 U/g. The GSSG/GSH ([3]; 0.1% DMS in diet (T2), d-39) was 0.027, the “Glutathione (GSH)” value ([3]; 0.1% DMS in diet (T2), d-39) was 3.74 µmol/g and the Glutathione peroxidase ([3]; 0.1% DMS in diet (T2), d-39) was 17.5 U/g. The Malondialdehyde ([3]; 0.1% DMS in diet (T2), d-39) was 46.4 nmol/g, the “Oxidized glutathione (GSSG)” value ([3]; 0.1% DMS in diet (T2), d-39) was 0.093 µmol/g and the Super oxide dismutase ([3]; 0.1% DMS in diet (T2), d-39) was 356 U/g. The GSSG/GSH ([3]; 0.2% DMS in diet (T3), d-23) was 0.015, the “Glutathione (GSH)” value ([3]; 0.2% DMS in diet (T3), d-23) was 5.04 µmol/g and the Glutathione peroxidase ([3]; 0.2% DMS in diet (T3), d-23) was 16.9 U/g. The Malondialdehyde ([3]; 0.2% DMS in diet (T3), d-23) was 44.6 nmol/g, the “Oxidized glutathione (GSSG)” value ([3]; 0.2% DMS in diet (T3), d-23) was 0.076 µmol/g and the Super oxide dismutase ([3]; 0.2% DMS in diet (T3), d-23) was 317 U/g. For the same compound, the GSSG/GSH ([3]; 0.2% DMS in diet (T3), d-25) was 0.017, the “Glutathione (GSH)” value ([3]; 0.2% DMS in diet (T3), d-25) was 4.14 µmol/g and the Glutathione peroxidase ([3]; 0.2% DMS in diet (T3), d-25) was 17.9 U/g. For the same compound, the Malondialdehyde ([3]; 0.2% DMS in diet (T3), d-25) was 49.1 nmol/g, the “Oxidized glutathione (GSSG)” value ([3]; 0.2% DMS in diet (T3), d-25) was 0.069 µmol/g and the Super oxide dismutase ([3]; 0.2% DMS in diet (T3), d-25) was 289 U/g. The GSSG/GSH ([3]; 0.2% DMS in diet (T3), d-39) was 0.025, the “Glutathione (GSH)” value ([3]; 0.2% DMS in diet (T3), d-39) was 3.94 µmol/g and the Glutathione peroxidase ([3]; 0.2% DMS in diet (T3), d-39) was 18.6 U/g. For the same compound, the Malondialdehyde ([3]; 0.2% DMS in diet (T3), d-39) was 48 nmol/g, the “Oxidized glutathione (GSSG)” value ([3]; 0.2% DMS in diet (T3), d-39) was 0.097 µmol/g and the Super oxide dismutase ([3]; 0.2% DMS in diet (T3), d-39) was 346 U/g.
